Consider six molecules from patent US11807693B2 (priority 2014, dated 2023).

Starred links: 1 amine or outer side, 2 acyl side, 3 side chain; linkers in the order of their positions; H or OH if unused. Non-standard residues stand in square brackets, D forms with d. Residues, ends and D or L forms follow the SMILES beside them. ξ: configuration not given here. *: point of attachment. Phe(4-Cl) = N[C@@H](Cc1ccc(Cl)cc1)C(=O)O; γGlu = O=C(O)[C@H](CCC(=O)[*:2])N[*:1]; NMeR = CN[C@@H](CCCNC(=N)N)C(=O)O; Tridecanoyl = CCCCCCCCCCCCC(=O)*; hArg = N=C(N)NCCCC[C@H](N)C(=O)O; Cha = N[C@@H](CC1CCCCC1)C(=O)O; Pip = O=C(O)[C@@H]1CCCCN1; Nle = CCCC[C@H](N)C(=O)O; ξαMeP = CC1(C(=O)O)CCCN1; ξβ3hV = CC(C)C(N)CC(=O)O; AEEA = NCCOCCOCC(=O)O; Aib = CC(C)(N)C(=O)O

The nature of data set [1]: In vitro stability in rat liver homogenate. The following applies: tissue homogenate. In kind it is in vitro ADME. How it is done: (§1) Apelin peptides were spiked into rat plasma, liver homogenate, and kidney homogenate, which were obtained from commercial sources, to a final concentration of 5 μM. The samples were then incubated at 37° C. over a period of 4 hr. […] In a typical experiment, an aliquot of 100 μL of sample was taken from the incubation vial, followed by addition of 300 μL of MeOH containing internal standard. The quenched sample was centrifuged at 5500 g for 15 min after 15 min vortex in room temperature. The supernatant was then analyzed by high resolution LC-MS. […] In vitro plasma, […], and kidney stability results are shown below in Table 14.

Data set [2] in a line: In vitro stability in rat plasma. In kind it is in vitro ADME. The procedure: as §1

`CCCCCCCCCCCCC(=O)N[C@@H](CCC(=O)NCCOCCOCC(=O)NCCOCCOCC(=O)N[C@@H](CCC(N)=O)C(=O)N[C@@H](CCCNC(=N)N)C(=O)N1CCC[C@H]1C(=O)N(C)[C@@H](CCCNC(=N)N)C(=O)N[C@@H](CC(C)C)C(=O)N[C@@H](CO)C(=O)N[C@@H](Cc1c[nH]cn1)C(=O)N[C@@H](CCCCN)C(=O)NCC(=O)N1CCC[C@H]1C(=O)N[C@@H](CCCC)C(=O)N[C@@H](Cc1ccc(Cl)cc1)C(=O)O)C(=O)O` [compound 402] ({Tridecanoyl-γGlu-AEEA-AEEA}-QRP[NMeR]LSHKGP[Nle][Phe(4-Cl)]-OH): the values for the amount remaining at 4 h, 5 μM in data set [1] and in data set [2] were less than 1% and 87%, respectively.

Turning to `CCCCCCCCCCCCC(=O)N[C@@H](CCC(=O)NCCOCCOCC(=O)NCCOCCOCC(=O)N[C@H](CCC(N)=O)C(=O)N[C@@H](CCCNC(=N)N)C(=O)N1CCCC1(C)C(=O)N[C@@H](CCCCNC(=N)N)C(=O)NC(CC(=O)N[C@@H](CO)C(=O)N[C@@H](Cc1c[nH]cn1)C(=O)N[C@@H](CCCCN)C(=O)NCC(=O)N1CCCC[C@H]1C(=O)N[C@@H](CCCC)C(=O)N[C@@H](Cc1ccc(Cl)cc1)C(=O)O)C(C)C)C(=O)O` (stereo partly drawn) [compound 501] ({Tridecanoyl-γGlu-AEEA-AEEA}-[dQ]R[ξαMeP][hArg][ξβ3hV]SHKG[Pip][Nle][Phe(4-Cl)]-OH), the amount remaining at 4 h, 5 μM is less than 1% in data set [1] and greater than 90% in data set [2].

Regarding `CCCCCCCCCCCCC(=O)N[C@@H](CCC(=O)NCCOCCOCC(=O)NCCOCCOCC(=O)N[C@@H](CCC(N)=O)C(=O)N[C@@H](CCCNC(=N)N)C(=O)N1CCC[C@H]1C(=O)N(C)[C@@H](CCCNC(=N)N)C(=O)N[C@@H](CC(C)C)C(=O)N[C@@H](CO)C(=O)N[C@H](CN[C@@H](CCCCN)C(=O)NCC(=O)N1CCC[C@H]1C(=O)N[C@@H](CCCC)C(=O)N1CCC[C@H]1C(=O)N[C@@H](Cc1ccc(Cl)cc1)C(=O)O)Cc1c[nH]cn1)C(=O)O` [compound 469], the share remaining at 4 h, 5 μM in data set [1] is less than 1%; in data set [2] it was 36%.

For `CCCCCCCCCCCCC(=O)N[C@@H](CCC(=O)NCCOCCOCC(=O)NCCOCCOCC(=O)N[C@H](CCC(N)=O)C(=O)N[C@@H](CCCNC(=N)N)C(=O)N1CCC[C@H]1C(=O)N(C)[C@@H](CCCNC(=N)N)C(=O)N[C@@](C)(CC(C)C)C(=O)N[C@@H](CO)C(=O)N[C@@H](Cc1c[nH]cn1)C(=O)N[C@@H](CCCCN)C(=O)NCC(=O)N1CCCC[C@H]1C(=O)N[C@@H](CCCC)C(=O)N1CCC[C@@]1(C)C(=O)N[C@@H](Cc1ccc(Cl)cc1)C(=O)O)C(=O)O` [compound 555], the figures for the amount remaining at 4 h, 5 μM in data set [1] and in data set [2] were less than 1% and greater than 90%, respectively.

In the case of `CCCCCCCCCCCCC(=O)N[C@@H](CCC(=O)NCCOCCOCC(=O)NCCOCCOCC(=O)N[C@H](CCC(N)=O)C(=O)N[C@@H](CCCNC(=N)N)C(=O)N1CCC[C@H]1C(=O)N(C)[C@@H](CCCNC(=N)N)C(=O)N[C@@H](CC1CCCCC1)C(=O)N[C@@H](CO)C(=O)N[C@@H](Cc1c[nH]cn1)C(=O)N[C@@H](CCCCN)C(=O)NCC(=O)N1CCCC[C@H]1C(=O)N[C@@H](CCCC)C(=O)NC(C)(C)C(=O)N[C@@H](Cc1ccc(Cl)cc1)C(=O)O)C(=O)O` [compound 499] ({Tridecanoyl-γGlu-AEEA-AEEA}-[dQ]RP[NMeR][Cha]SHKG[Pip][Nle][Aib][Phe(4-Cl)]-OH), the values for the fraction remaining at 4 h, 5 μM in data set [1] and in data set [2] were less than 1% and greater than 90%, respectively.

Turning to `CCCCCCCCCCCCC(=O)N[C@@H](CCC(=O)NCCOCCOCC(=O)NCCOCCOCC(=O)N[C@@H](CCC(N)=O)C(=O)N[C@@H](CCCNC(=N)N)C(=O)N1CCC[C@H]1C(=O)N(C)[C@@H](CCCNC(=N)N)C(=O)N[C@H](CC(=O)N[C@@H](CO)C(=O)N[C@@H](Cc1c[nH]cn1)C(=O)N[C@@H](CCCCN)C(=O)NCC(=O)N1CCC[C@H]1C(=O)N[C@@H](CCCC)C(=O)N1CCC[C@H]1C(=O)N[C@@H](Cc1ccc(Cl)cc1)C(=O)O)CC(C)C)C(=O)O` [compound 422], the amount remaining at 4 h, 5 μM is less than 1% in data set [1] and 37% in data set [2].

The term fraction remaining denotes what is left of the initial amount, in per cent.
